From patent US7541367B2, “3-benzoimidazolyl-pyrazolopyridines useful in treating kinase disorders” (Janssen Pharmaceutica, N.V., priority 2005, dated 2009)

How the values were obtained:
[1] = biological target: T1, CDK1 (Homo sapiens, UniProt P06493); experiment: CDK-1 kinase screening assay (33P-ATP FlashPlate); assay type: biochemical; conditions: human CDK1 with cyclin B; 10 μM ATP; 1 hr at 30° C
T1 construct: purchased New England Biolabs, Beverly, Mass; 6020; host or cells: insect cells

[2] = biological target: T2, Aurora-A (Mus musculus, UniProt P97477); experiment: Aurora-A kinase screening assay (33P-ATP FlashPlate); assay type: biochemical; conditions: 10 μM ATP, 1 hr at 30° C;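 note: His-tagged mouse Aurora-A phosphorylating a biotinylated peptide captured on streptavidin plates, read as 33P uptake by scintillation counting, 1% DMSO, inhibition scaled between per-plate maximum and minimum signals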
T2 construct: polyhistidine (N)
T2 sequence (P97477 1-395): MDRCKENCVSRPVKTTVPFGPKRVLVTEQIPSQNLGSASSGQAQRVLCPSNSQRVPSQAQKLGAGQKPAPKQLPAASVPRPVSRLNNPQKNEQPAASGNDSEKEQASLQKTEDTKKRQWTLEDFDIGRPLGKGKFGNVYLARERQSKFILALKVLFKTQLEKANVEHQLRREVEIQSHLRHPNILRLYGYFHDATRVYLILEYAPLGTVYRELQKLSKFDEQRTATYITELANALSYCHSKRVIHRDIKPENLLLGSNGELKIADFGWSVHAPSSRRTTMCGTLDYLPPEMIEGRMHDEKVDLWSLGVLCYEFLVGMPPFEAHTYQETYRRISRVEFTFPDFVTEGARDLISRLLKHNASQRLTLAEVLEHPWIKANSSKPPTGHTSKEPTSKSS

[3] = system: HeLa cervical adenocarcinoma; experiment: Cell Proliferation Inhibition Assay (14C-thymidine incorporation), HeLa; assay type: cell-based; conditions: Homo sapiens, HeLa, HeLa cells;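 note: test compound in DMSO added to cells seeded in scintillating 96-well plates, DMSO-only wells as control, uptake of methyl 14C-thymidine into new DNA counted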

T1 sequence (P06493 whole entry): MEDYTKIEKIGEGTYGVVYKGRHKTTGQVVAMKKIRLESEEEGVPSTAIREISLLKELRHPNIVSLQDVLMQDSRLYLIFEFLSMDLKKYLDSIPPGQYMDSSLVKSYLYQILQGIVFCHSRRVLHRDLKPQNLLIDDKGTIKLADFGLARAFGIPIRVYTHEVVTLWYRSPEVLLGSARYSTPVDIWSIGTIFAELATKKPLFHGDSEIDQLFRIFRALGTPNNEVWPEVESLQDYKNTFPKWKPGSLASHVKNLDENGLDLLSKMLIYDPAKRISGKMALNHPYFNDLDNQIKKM
T1 sequence (P14635 whole entry partner): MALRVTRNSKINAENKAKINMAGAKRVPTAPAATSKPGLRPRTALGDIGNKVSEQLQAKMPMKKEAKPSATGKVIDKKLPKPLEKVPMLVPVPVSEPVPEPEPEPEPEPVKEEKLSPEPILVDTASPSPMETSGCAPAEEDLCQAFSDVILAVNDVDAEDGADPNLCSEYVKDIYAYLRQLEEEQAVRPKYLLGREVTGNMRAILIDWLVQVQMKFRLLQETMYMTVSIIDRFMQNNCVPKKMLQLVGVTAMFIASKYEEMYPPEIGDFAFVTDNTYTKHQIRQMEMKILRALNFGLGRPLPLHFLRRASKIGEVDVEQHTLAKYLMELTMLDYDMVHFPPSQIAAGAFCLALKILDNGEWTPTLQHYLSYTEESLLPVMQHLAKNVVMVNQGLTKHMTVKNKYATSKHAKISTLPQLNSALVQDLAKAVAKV

SMILES | IC50 [1] [µM] | IC50 [2] [µM] | IC50 [3] [µM]
CCNCc1cncc(-c2cnc3[nH]nc(-c4nc5cc(OC)ccc5[nH]4)c3c2)c1 [Cpd 101, ethyl-{5-[3-(5-methoxy-1H-benzoimidazol-2-yl)-1H-pyrazolo[3,4-b]pyridin-5-yl]-pyridin-3-ylmethyl}-amine] | 0.0008 | 0.356 | 0.0342
CNCc1cncc(-c2cnc3[nH]nc(-c4nc5cc(OC(F)(F)F)ccc5[nH]4)c3c2)c1 [Cpd 96, methyl-{5-[3-(5-trifluoromethoxy-1H-benzoimidazol-2-yl)-1H-pyrazolo[3,4-b]pyridin-5-yl]-pyridin-3-ylmethyl}-amine] | 0.0009 to 0.0013 | ~1 | –
